# What was measured:
# [1] = target: T1, Porcine pancreatic lipase (Sus scrofa, UniProt P00591); test: fluorometric 4-MUO hydrolysis assay; Lineweaver-Burk kinetics (Ki […], Ki'[…]); type: biochemical
# T1 construct: gene PNLIP
# T1 sequence (P00591 1-450): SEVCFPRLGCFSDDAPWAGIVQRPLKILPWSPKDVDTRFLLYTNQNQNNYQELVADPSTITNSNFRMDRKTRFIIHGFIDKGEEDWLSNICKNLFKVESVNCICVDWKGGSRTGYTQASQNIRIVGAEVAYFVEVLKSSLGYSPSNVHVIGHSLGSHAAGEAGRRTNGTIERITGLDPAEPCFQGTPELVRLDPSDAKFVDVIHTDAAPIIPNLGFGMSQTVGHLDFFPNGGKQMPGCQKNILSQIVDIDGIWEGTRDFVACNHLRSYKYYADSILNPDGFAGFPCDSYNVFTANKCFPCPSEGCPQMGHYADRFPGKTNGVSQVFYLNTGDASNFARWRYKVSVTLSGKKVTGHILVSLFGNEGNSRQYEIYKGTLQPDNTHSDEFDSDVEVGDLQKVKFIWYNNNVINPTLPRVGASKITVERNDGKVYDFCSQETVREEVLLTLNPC
# [2] = target: T2, porcine pancreatic cholesterol esterase (Sus scrofa, UniProt A0A286ZKB1); test: colorimetric p-NPB hydrolysis assay, percent inhibition at […]; type: biochemical; settings: read-out: % inhibition at 1 mM
# T2 construct: gene CEL
# T2 sequence (A0A286ZKB1 96-682): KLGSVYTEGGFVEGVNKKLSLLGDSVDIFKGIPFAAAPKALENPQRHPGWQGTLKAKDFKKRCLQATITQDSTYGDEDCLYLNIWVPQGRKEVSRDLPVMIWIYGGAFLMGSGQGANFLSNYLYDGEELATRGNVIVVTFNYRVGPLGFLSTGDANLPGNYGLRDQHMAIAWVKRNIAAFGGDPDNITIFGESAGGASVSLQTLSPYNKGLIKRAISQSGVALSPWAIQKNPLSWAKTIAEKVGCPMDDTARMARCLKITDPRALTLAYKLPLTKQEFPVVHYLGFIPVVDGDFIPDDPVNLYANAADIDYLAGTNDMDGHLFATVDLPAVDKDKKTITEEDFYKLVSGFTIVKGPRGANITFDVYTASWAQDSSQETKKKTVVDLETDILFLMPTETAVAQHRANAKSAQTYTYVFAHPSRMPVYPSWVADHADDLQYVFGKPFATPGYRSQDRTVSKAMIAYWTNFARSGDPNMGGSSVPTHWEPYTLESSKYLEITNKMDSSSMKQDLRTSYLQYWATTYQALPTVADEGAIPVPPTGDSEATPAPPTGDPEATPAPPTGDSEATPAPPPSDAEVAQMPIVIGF
Compound,IC50 [1] [µM],inhibition at 1000 µM [2] [%]
"C[C@@H]1O[C@@H](OC[C@H]2O[C@@H](Oc3cc4c(O)cc(O)cc4[o+]c3-c3ccc(O)c(O)c3)[C@H](O)[C@@H](O)[C@@H]2O)[C@H](O)[C@H](O)[C@H]1O [C3R, Cyanidin-3-rutinoside]",59.4 ± 1.41,–
O=C(O)c1cc(O)c(O)c(O)c1 [gallic acid],–,~39

# Source: PMC6727418, “Cyanidin-3-rutinoside acts as a natural inhibitor of intestinal lipid digestion and absorption” (BMC Complementary and Alternative Medicine, 2019)
